Consider eleven substances from US20100249061A1, “OLIGOSACCHARIDES, PREPARATION METHOD AND USE THEREOF, AND PHARMACEUTICAL COMPOSITIONS CONTAINING SAME” (Aventis Pharma S.A., priority 2004, published 2010).

For one data set, the target named is T1, heparanase (Homo sapiens, UniProt Q9Y251).
T1 sequence (Q9Y251 36-543): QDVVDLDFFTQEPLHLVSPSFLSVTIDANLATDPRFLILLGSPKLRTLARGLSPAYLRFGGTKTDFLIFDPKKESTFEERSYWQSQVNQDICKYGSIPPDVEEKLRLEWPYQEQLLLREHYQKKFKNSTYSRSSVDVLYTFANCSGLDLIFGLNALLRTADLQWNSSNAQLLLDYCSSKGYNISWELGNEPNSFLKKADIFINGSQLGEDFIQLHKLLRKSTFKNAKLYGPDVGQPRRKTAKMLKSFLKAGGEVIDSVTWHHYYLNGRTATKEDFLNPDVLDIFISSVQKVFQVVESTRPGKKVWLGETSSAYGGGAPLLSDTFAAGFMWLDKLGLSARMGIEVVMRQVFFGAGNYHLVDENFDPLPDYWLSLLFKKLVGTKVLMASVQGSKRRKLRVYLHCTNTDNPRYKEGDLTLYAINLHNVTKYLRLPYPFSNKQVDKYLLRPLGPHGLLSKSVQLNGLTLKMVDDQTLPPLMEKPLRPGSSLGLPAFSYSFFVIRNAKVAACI
The data set is described as follows: Heparanase inhibition in an enzymatic system (degradation of fondaparinux, residual anti-factor Xa activity). It is filed as biochemical. The procedure:
The concentration of fondaparinux is determined by virtue of its anti-factor Xa activity.
The heparanase is produced by Sanofi-Synthélabo (Labège, France). The reagents for assaying factor Xa are sold by Chromogénix (Montpellier, France).
Increasing concentrations of a compound according to the invention, heparanase inhibitor ([…]), are mixed with a fixed concentration of heparanase (for each batch, preliminary experiments make it possible to determine the enzymatic activity sufficient for degradation of 0.45 μg/ml of fondaparinux added). After 5 minutes at 37° C., the mixture is brought into contact with the fondaparinux and left at 37° C. for 1 hour. The reaction is stopped by heating at 95° C. for 5 minutes. The residual fondaparinux concentration is finally measured by adding factor Xa and its specific chromogenic substrate (Ref. S2222).
50 μl of sodium acetate buffer (0.2 M, pH 4.2) are mixed with 50 μl of fondaparinux (0.45 μg/ml) and 59 μl of a heparanase solution. The mixture is incubated for 1 hour at 37° C. and then for 5 minutes at 95° C. The pH thus goes from 4.2 to 7. 100 μl of the reaction mixture are then mixed with 50 μl of 50 mM Tris buffer containing 175 mM NaCl and 75 mM EDTA, […]. The anti-factor Xa activity of the fondaparinux is measured in the following way:
100 μl of the solution obtained in step a) are mixed with 100 μl of AT (0.5 μg/ml). The mixture is kept at 37° C. for 2 minutes and 100 μl of factor Xa (7 nkat/ml) are then added. The mixture is kept at 37° C. for 2 minutes and 100 μl of chromogenic substrate (Ref.: S2222) (1 mM) are then added. The mixture is kept at 37° C. for 2 minutes and then 100 μl of acetic acid (50%) are added. The optical density is read at 405 nm. A percentage inhibition is determined relative to the control without inhibitor. A percentage inhibition curve makes it possible to calculate an IC50.

The next data set has as its target ATIII (Homo sapiens, UniProt P01008). As to the kind of experiment: Affinity for ATIII. It is filed as binding.
The target in data set [1] is T2, heparanase isolated from human peripheral blood leukocytes (PMN supernatant) (Homo sapiens, UniProt Q9Y251).
T2 construct: The supernatants containing the heparanase are then collected; from tissue; host or cells: human peripheral blood leukocytes (buffy coats) enriched in PMNs; cell supernatant
T2 sequence (Q9Y251 36-543): T1 sequence (Q9Y251 36-543)
The data set is described as follows: Heparanase degradation of 35-S-labelled heparan sulphate proteoglycan, gel permeation chromatography and scintillation counting. Type of data set: biochemical. The text has this: Radiolabelled heparin/heparan sulphate (HS) is degraded with heparanases, producing low molecular weight HS fragments which can be measured by gel permeation chromatography (FPLC) and counting of the collected fractions by liquid scintillation.
A uterine fibroblast cell line was used to prepare heparan sulphate (proteoglycan) labelled with 35-S by metabolic labelling. It has been shown that this cell line produces relatively large amounts of various heparan sulphate proteoglycans (HS-PGs), such as syndecans and glypican (Drzeniek et al., Blood 93:2884-2897, 1999).
The labelling is carried out by incubating the cells, with a cell density of approximately 1×10^6 cells/ml, in the presence of 35-S-sulphate at 33 μCi/ml in the tissue culture medium for 24 hours. The supernatants are then collected and a protease inhibitor, PMSF (phenylmethylsulfonyl fluoride) (1 mmol/l), is added. […]
200 μl of 35-S-labelled heparan sulphate (proteoglycans) adjusted to approximately 2200 cpm/ml (cpm=counts per minute) are incubated at 37° C. for 18 hours with 1 μl of PMN supernatant containing the heparanase. 200 μl of the mixture obtained above are sampled on a TSK 4000 gel permeation chromatography column (FPLC), and the fractions are collected and analyzed by liquid scintillation counting.
The degradation was measured according to the following formula: […]
For example, the percentage degradation is calculated as follows: the sum of the counts (cpm) in fractions 20-33 of the sample after treatment with the heparanase, minus the background noise count (cpm) (fractions 20-33) of the control sample, is divided by the total counts (fractions 12-33) applied to the column. […] A correction for the sulphatase activity is not necessary since no sulphatase activity could be detected.
The following heparanase inhibitors: unfractionated heparin (UF-H) and Hexa Iso ATIII were assayed via the protocol described above at three different concentrations. […] The data are expressed as percentage inhibition of the heparanase activity. […]

The conditions of data set [2]: Petitou et al., J. Biol. Chem. (1988); sodium salt; cited from earlier work.
The nature of data set [3]: Stability in alkaline medium / physicochemical properties. The conditions noted are these: loses 3-O-sulphated terminal glucosamine, converted to pentasaccharide ΔIs-IIaid-GlcA as soon as pH exceeds 8. The method, then: The depolymerization of the heparin takes place under the following conditions: 3 g of heparin from porcine mucous are dissolved in 30 ml of a solution of 0.2M NaCl, 0.02% BSA, 5 mM Na2HPO4, adjusted to pH 7. The depolymerization temperature is 16° C. 2 IU of heparinase 1 are initially introduced. After 7 days, an additional unit of heparinase 1 is added. After 15 days, the heparin depolymerization is considered to be finished. The reaction is monitored either by analytical […] on a TSK Super SW 2000 column (FIG. 1), or on a CTA-SAX column (FIG. 2a). The enzyme reaction may be considered to be sufficiently advanced when the proportion of oligosaccharides greater than octasaccharide in size is limited and when the two main sulphated hexasaccharides ΔIs-Isid-Isid and ΔIs-Isid-IIsglu in the mixture have been depolymerized to tetrasaccharides. When the enzyme reaction has finished, the solution is filtered through a 0.2 μm membrane and then injected, in 2 stages, onto a GC column filled with Biogel P10 (Bio Rad), in which a 0.2 N NaCl mobile phase circulates (FIG. 3). […] It is therefore very important to slightly acidify (pH between 5 and 6) the entire hexasaccharide fraction.

Where two headings read alike, the source gives them in different places.

Sequence of ATIII (P01008 33-464, species assumed): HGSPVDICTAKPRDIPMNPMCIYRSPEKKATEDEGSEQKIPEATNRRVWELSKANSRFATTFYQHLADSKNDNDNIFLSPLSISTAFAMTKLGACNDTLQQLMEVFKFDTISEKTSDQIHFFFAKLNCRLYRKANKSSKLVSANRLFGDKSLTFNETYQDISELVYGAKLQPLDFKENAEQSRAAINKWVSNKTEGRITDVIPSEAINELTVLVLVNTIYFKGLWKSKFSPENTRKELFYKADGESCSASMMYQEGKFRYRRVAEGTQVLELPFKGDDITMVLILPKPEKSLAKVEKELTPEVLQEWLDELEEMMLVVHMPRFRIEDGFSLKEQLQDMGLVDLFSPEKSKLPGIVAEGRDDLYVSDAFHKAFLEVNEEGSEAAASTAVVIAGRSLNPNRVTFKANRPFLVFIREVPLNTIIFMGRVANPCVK

As usually defined, the % inhibition is the change of the read-out against control, counted positive when it falls. As to ΔIs-IIa-IIs [(Ia)], the “% inhibition” value at heparanase (Concentration 1.00E−4 M) is reported as 53.8%.

In the case of ΔIs-IIaid-IIsglu [Hexa Iso ATIII], the “affinity for ATIII” value on ATIII is reported as “no affinity for ATIII”. The “% inhibition” value on heparanase (Concentration 3.00E−5 M) came out at 48.5%. The figures for the anti-thrombotic activity entry (in the data set “Anti-thrombotic activity”; in data set [2]) were “devoid of anti-thrombotic activity” and “no anti-thrombotic activity”, respectively. Moreover, the “heparanase-inhibiting activity (conclusion in words)” value was “strong heparanase-inhibiting activity” in data set [1] and “very good heparanase inhibitor” in data set [1] (listed as hexasaccharide Iso ATIII). Also, the “dose dependence of heparanase inhibition” value in data set [1] (three concentrations, FIG. 2 / FIG. 7) is recorded as “dose-dependant inhibition”. The “stability in alkaline medium” value in data set [3] is “extremely fragile in alkaline medium”.

As for ΔIs-Ia-IIs [(Im)], the “% inhibition” value on heparanase (Concentration 3.00E−5 M) is given as 54.1%.

As for ΔIs-Is-IIa-IIs [(Ib)], at heparanase (Concentration 1.00E−5 M), the “% inhibition” value stood at 59.9%.

ΔIs-Is-IIa-IIs [(Ic)]: the “% inhibition” value on heparanase (Concentration 3.00E−6 M) is on record as 59.2%.

In the case of ΔIs-Is-Ia-IIs [(Id)], the “% inhibition” value at heparanase (Concentration 3.00E−5 M) worked out at 53.9%.

Take ΔIs-Is-Is-IIa-IIs [(If)]: the “% inhibition” value at heparanase (Concentration 3.00E−6 M) worked out at 58.4%.

ΔIs-Is-Is-IIa-IIs [(Ig)]: the “% inhibition” value on heparanase (Concentration 1.00E−4 M) came to 55.8%.

Regarding ΔIs-Is-Is-IIs [(Ie)], at heparanase (Concentration 3.00E−5 M), the “% inhibition” value came out at 59.1%.

On to ΔIs-Is-Is-Ia-IIs [(Ih)], for which the “% inhibition” value on heparanase (Concentration 3.00E−5 M) stood at 55.5%.

With ΔIs-Is-Is-Is-IIs [(Ij)], at heparanase (Concentration 3.00E−5 M), the “% inhibition” value came to 48.4%.
